Reference: patent US7919508B2, “3-piperidinylisochroman-5-ols as dopamine agonists” (Aventis Pharmaceuticals Inc., priority 2004, dated 2011)
Structures can show the parent of a compound that is named as a salt.

Columns and labels:
[1] = biological target: T1, human dopamine D1 receptor (Homo sapiens, UniProt P21728); test: [3H]-SCH-23390 binding to cloned human dopamine D1 receptors (CHO cell membranes); conditions: competitive binding, [3H]-SCH-23390, cloned human D1 in CHO membranes; read-out: D1 affinity Ki
T1 construct: A 1.4 Kb Hind III to Xho I fragment was subcloned into the vector pMMLV; expressed in transfected cells; host or cells: CHO cells, clone CHO-D1M#9 (plasmid pHD1MMLV), membranes
T1 sequence (P21728 whole entry, the tested form may be a part): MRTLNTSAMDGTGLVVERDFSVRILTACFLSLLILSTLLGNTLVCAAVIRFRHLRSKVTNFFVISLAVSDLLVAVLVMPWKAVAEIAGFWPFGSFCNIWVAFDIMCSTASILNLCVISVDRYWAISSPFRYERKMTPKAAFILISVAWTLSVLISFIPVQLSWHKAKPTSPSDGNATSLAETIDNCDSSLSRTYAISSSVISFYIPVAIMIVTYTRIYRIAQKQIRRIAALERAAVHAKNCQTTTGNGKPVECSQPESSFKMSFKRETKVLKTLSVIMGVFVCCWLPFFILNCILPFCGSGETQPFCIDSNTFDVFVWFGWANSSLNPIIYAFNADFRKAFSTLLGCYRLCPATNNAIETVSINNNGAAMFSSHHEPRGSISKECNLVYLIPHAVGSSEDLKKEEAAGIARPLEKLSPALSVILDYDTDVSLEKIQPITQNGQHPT

D1 receptor = biological target: T2, D1 receptor (Homo sapiens, UniProt P21728); test: D1 Activation Adenylyl Cyclase Assay (cAMP FlashPlate, D1 transfected CHO cell line); type: cell-based; conditions: agonist activity at the D1 receptor, adenylate cyclase assay, D1 transfected CHO cell line; read-out: D1 EC50
T2 construct: expressed in transfected cells; host or cells: D1 transfected CHO cell line
T2 sequence (P21728 whole entry): as the sequence (P21728 whole entry, the tested form may be a part) above
Method: D1 Activation Adenylyl Cyclase Assay
Purpose: To measure D1-agonist activity compounds using an Adenylyl Cyclase Activation Flash Plate Assay from NEN.
Buffers: Activation and Detection buffers are provided from NEN: Catalog # SMP004A.
Maintenance of D1 transfected CHO cell line: • 1. Cells are grown in a 150 cc flask in an incubator at 37° C. with 5% CO2 for 2-3 days (4 maximum) until confluent. • 2. Aspirate off old media (Cells adhere to the plastic flask), wash 2× with sterile PBS. • 3. Add ˜5 mL of Trypsin EDTA (enough to cover bottom of the flask) for 5 min. at RT. • 4. Stop digestion with 15 mL of Media (Ham's F12 plus 10% FBS, 1% P/S, 400 μg/mL G418). • Bang flask on counter to release them from the flask. • 5. Add 2 mL of this to 30 mL of Media in a fresh flask. Return to incubator. Preparation of Cells for Assay: • 1. Loosen the cells with 5 mL Vercine (EDTA)/flask for 10 minutes in incubator. • 2. Add 20 mL of Serum-free media/flask. Transfer to 50-mL Falcon tube. • 3. Spin down cells at 1000 RPM for 5 minutes at 4° C. • 4. Aspirate off old media and resuspend in 5 mL of Serum-free media/plate to be done. • 5. Dilute 10 μL 1/10 in 90 μL Trypan Blue solution and count with a hemocytometer. • Count (live cells only) all four areas and average them. • Count X 10^5 equals cells/mL (including accounting for dilution in Trypan). • 6. Dilute to 50,000 cells/50 μL (1,000,000 cells/mL) in Serum-free media. • 7. Put 50 μL/well in Rows 3-12 of a cAMP FlashPlate. • 8. Put in incubator at 37° C. for 2-4 hours, to allow cells to recover and attach. Adenylyl Cyclase Activation Assay: • 1. Prepare the cAMP standards: • Add 130 μL/well of stimulation buffer to each row of a separate 96-well “standard” plate, 2 columns/plate. • Dilute stock cAMP standard 1/5 with stimulation buffer (final concentration is 1000 pmol/mL). Add 130 μL of this to row A. • Make 1/2 serial dilutions by adding 130 μL from each well to the next (A-G), mixing between each. • Final concentrations are: • A: 500, B: 250, C: 125, D: 62.5, E: 31.25, F: 15.6, G: 7.8, H: 0 pmol/mL. • Place 100 μL from each row from 2 columns of the standard plate into columns 1 and 2 of each “reaction” plate. • 2. Prepare the negative and positive control in the “reaction” plate: • Column 3, rows A-D, add 100 μL stimulation buffer (negative control). • Column 3, rows E-H, add 90 μL of stimulation buffer plus 10 μL of 200 μM APO (positive control, […]). (10 μL 10 mM APO, plus 490 μL stim. buffer=1/50 dilution.) • 3. Prepare the agonist compound dilutions in the “compound” plate: • Add 80 μL of stimulation buffer to row A (One column for each compound), and 90 μL of stimulation buffer to rows B—H. • Add 20 μL of 10 mM of each compound to appropriate row A. • Make 1/10 serial dilutions by adding 10 μL from each well to the next (A-H), mixing between each. • 4. […]. Prepare Detection/Stop buffer by adding 90 μL/plate of cAMP-^125I to 10 mL/plate plus 6 mL (for dead volume) of detection buffer. Steps 6-8 performed with the Multi-Mek. • 6. Add 50 μL to each well of the FlashPlate with CHO cells set up earlier. • 7. Incubate at RT for 8 minutes. • 8. Stop reaction by adding 100 μL of detection/stop buffer to each well. • 9. Cover with plastic film and incubate at RT for 16-24 hours (don't wait more than 24 hours). • 10. Count in a Packard Top-Count. Calculations: • 1. Raw signals generated by cAMP standard wells, without cells, are averaged at each cAMP concentration and converted to % B/Bo by dividing the raw signal at each cAMP concentration by the raw signal with no cAMP added. • 2. These values are used to generate a standard curve by plotting cAMP concentration versus % B/Bo. • 3. Raw data for each compound at each concentration is also converted to % B/B. by the same method. • 4. These values are then converted to pmol cAMP/mL using the standard curve. • 5. These cAMP values are then averaged across the three replicates for each compound concentration. • 6. […]

[2] = biological target: human dopamine D2Long (D2L) receptors (Homo sapiens, UniProt P14416)
human dopamine D2Long (D2L) receptors, sequence (P14416 whole entry): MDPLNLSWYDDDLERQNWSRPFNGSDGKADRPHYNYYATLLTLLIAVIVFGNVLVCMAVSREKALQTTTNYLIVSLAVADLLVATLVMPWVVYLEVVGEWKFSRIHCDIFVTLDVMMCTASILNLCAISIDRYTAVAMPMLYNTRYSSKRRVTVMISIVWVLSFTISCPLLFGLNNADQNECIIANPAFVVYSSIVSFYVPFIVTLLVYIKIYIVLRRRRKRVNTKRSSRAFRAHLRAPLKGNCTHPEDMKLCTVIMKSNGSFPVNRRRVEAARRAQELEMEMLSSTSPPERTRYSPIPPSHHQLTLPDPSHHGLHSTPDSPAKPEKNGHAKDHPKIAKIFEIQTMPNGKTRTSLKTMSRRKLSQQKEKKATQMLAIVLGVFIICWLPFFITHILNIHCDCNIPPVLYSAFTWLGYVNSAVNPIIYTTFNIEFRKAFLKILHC

| Ki [1] | EC50 (D1 receptor) | Ki [2] | SMILES |
| --- | --- | --- | --- |
| 42.8 nM | 62 nM | 749 nM | Cc1ccc2c(c1O)C[C@@H](C1CCN(Cc3ccccc3F)CC1)O[C@H]2CN [Example 36, (1R,3S)-1-Aminomethyl-3-[1-(2-fluoro-benzyl)-piperidin-4-yl]-6-methyl-isochroman-5-ol dihydrobromide] |
| 17.9 nM | 110 nM | 356 nM | Cc1ccc2c(c1O)C[C@@H](C1CCN(Cc3cccc(Cl)c3)CC1)O[C@H]2CN [Example 37, (1R,3S)-1-Aminomethyl-3-[1-(3-chloro-benzyl)-piperidin-4-yl]-6-methyl-isochroman-5-ol dihydrobromide] |
| 53 nM | 10 nM | ≥ 10000 nM | Cc1ccc2c(c1O)C[C@@H](C1CCN(CC3CC3)CC1)O[C@H]2CN [Example 38, (1R,3S)-1-Aminomethyl-3-(1-cyclopropylmethyl-piperidin-4-yl)-6-methyl-isochroman-5-ol dihydrochloride] |
| 113 nM | 750 nM | ≥ 10000 nM | Cc1ccc2c(c1O)C[C@@H](C1CCN(Cc3cccc4ccccc34)CC1)O[C@H]2CN [Example 39, (1R,3S)-1-Aminomethyl-6-methyl-3-(1-naphthalen-1-ylmethyl-piperidin-4-yl)-isochroman-5-ol dihydrochloride] |
| 114 nM | 250 nM | ≥ 10000 nM | Cc1ccc2c(c1O)C[C@@H](C1CCN(CCC(C)C)CC1)O[C@H]2CN [Example 41, (1R,3S)-1-Aminomethyl-6-methyl-3-[1-(3-methyl-butyl)-piperidin-4-yl]-isochroman-5-ol dihydrochloride] |
| 86.1 nM | 110 nM | ≥ 10000 nM | Cc1ccc2c(c1O)C[C@@H](C1CCN(CCO)CC1)O[C@H]2CN [Example 43, (1R,3S)-1-Aminomethyl-3-[1-(2-hydroxy-ethyl)-piperidin-4-yl]-6-methyl-isochroman-5-ol dihydrochloride] |
| 96.4 nM | 110 nM | ≥ 10000 nM | Cc1ccc2c(c1O)C[C@@H](C1CCN(Cc3ccc4ccccc4c3)CC1)O[C@H]2CN [Example 45, (1R,3S)-1-Aminomethyl-6-methyl-3-(1-naphthalen-2-ylmethyl-piperidin-4-yl)-isochroman-5-ol dihydrochloride] |
| 49 nM | 100 nM | 215 nM | Cc1ccc2c(c1O)C[C@@H](C1CCN(Cc3ccc(Oc4ccccc4)cc3)CC1)O[C@H]2CN [Example 46, (1R,3S)-1-Aminomethyl-6-methyl-3-[1-(4-phenoxy-benzyl)-piperidin-4-yl]-isochroman-5-ol dihydrochloride] |
| 66.4 nM | 170 nM | ≥ 10000 nM | Cc1ccc2c(c1O)C[C@@H](C1CCN(Cc3cccs3)CC1)O[C@H]2CN [Example 47, (1R,3S)-1-Aminomethyl-6-methyl-3-(1-thiophen-2-ylmethyl-piperidin-4-yl)-isochroman-5-ol dihydrochloride] |
| 37.4 nM | 26 nM | ≥ 10000 nM | Cc1ccc2c(c1O)C[C@@H](C1CCN(Cc3ccc(C(C)C)cc3)CC1)O[C@H]2CN [Example 48, (1R 3S)-1-Aminomethyl-3-[1-(4-isopropyl-benzyl)-piperidin-4-yl]-6-methyl-isochroman-5-ol dihydrochloride] |
| 48.2 nM | 78 nM | 310 nM | Cc1ccc2c(c1O)C[C@@H](C1CCN(Cc3ccc(-c4ccccc4)cc3)CC1)O[C@H]2CN [Example 49, (1R,3S)-1-Aminomethyl-3-(1-biphenyl-4-ylmethyl-piperidin-4-yl)-6-methyl-isochroman-5-ol dihydrochloride] |
| 60.7 nM | 15 nM | ≥ 10000 nM | Cc1ccc2c(c1O)C[C@@H](C1CCN(Cc3cccnc3)CC1)O[C@H]2CN [Example 53, (1R,3S)-1-Aminomethyl-6-methyl-3-(1-pyridin-3-ylmethyl-piperidin-4-yl)-isochroman-5-ol dihydrochloride] |
| 53.6 nM | 16 nM | 449 nM | Cc1ccc2c(c1O)C[C@@H](C1CCN(Cc3ccc4ccccc4n3)CC1)O[C@H]2CN [Example 55, (1R,3S)-1-Aminomethyl-6-methyl-3-(1-quinolin-2-ylmethyl-piperidin-4-yl)-isochroman-5-ol dihydrochloride] |
| 30.5 nM | 12 nM | ≥ 10000 nM | Cc1ccc2c(c1O)C[C@@H](C1CCN(Cc3cnc4ccccc4c3)CC1)O[C@H]2CN [Example 56, (1R,3S)-1-Aminomethyl-6-methyl-3-(1-quinolin-3-ylmethyl-piperidin-4-yl)-isochroman-5-ol dihydrochloride] |
| 59.6 nM | 12 nM | ≥ 10000 nM | Cc1ccc2c(c1O)C[C@@H](C1CCN(Cc3ccnc4ccccc34)CC1)O[C@H]2CN [Example 57, (1R,3S)-1-Aminomethyl-6-methyl-3-(1-quinolin-4-ylmethyl-piperidin-4-yl)-isochroman-5-ol dihydrochloride] |
| 46.2 nM | 12 nM | 443 nM | Cc1ccc2c(c1O)C[C@@H](C1CCN(Cc3ccc(Cl)cc3Cl)CC1)O[C@H]2CN [Example 59, (1R,3S)-1-Aminomethyl-3-[1-(2,4-dichloro-benzyl)-piperidin-4-yl]-6-methyl-isochroman-5-ol dihydrochloride] |
| 11.8 nM | 160 nM | 364 nM | Cc1ccc2c(c1O)C[C@@H](C1CCN(Cc3ccc(Cl)c(Cl)c3)CC1)O[C@H]2CN [Example 60, (1R,3S)-1-Aminomethyl-3-[1-(3,4-dichloro-benzyl)-piperidin-4-yl]-6-methyl-isochroman-5-ol dihydrochloride] |
| 34 nM | 11 nM | 288 nM | Cc1cccc(CN2CCC([C@@H]3Cc4c(ccc(C)c4O)[C@H](CN)O3)CC2)c1 [Example 65, (1R,3S)-1-Aminomethyl-6-methyl-3-[1-(3-methyl-benzyl)-piperidin-4-yl]-isochroman-5-ol dihydrochloride] |
| 63.5 nM | 15 nM | 431 nM | Cc1ccc2c(c1O)C[C@@H](C1CCN(Cc3cccc(C(F)(F)F)c3)CC1)O[C@H]2CN [Example 73, (1R,3S)-1-Aminomethyl-6-methyl-3-[1-(3-trifluoromethyl-benzyl)-piperidin-4-yl]-isochroman-5-ol dihydrochloride] |
| 57 nM | 6 nM | 655 nM | Cc1ccc2c(c1O)C[C@@H](C1CCN(Cc3ccc(C(F)(F)F)cc3)CC1)O[C@H]2CN [Example 74, (1R,3S)-1-Aminomethyl-6-methyl-3-[1-(4-trifluoromethyl-benzyl)-piperidin-4-yl]-isochroman-5-ol dihydrochloride] |
